In patent US7803808B2, “Production of polyketides and other natural products” (Wyeth LLC, priority 2004, dated 2010):

Assays:
[1] = system: cell proliferation; conditions: compared to rapamycin; Khaw et al., 1998; cited from earlier work
[2] = system: mixed lymphocyte reaction; conditions: Nishida et al., 1995; cited from earlier work
[3] = system: DU145 (prostate, PTEN positive) tumour cell line; assay: Monolayer proliferation assay (modified propidium iodide), DU145; assay type: cell-based, human; conditions: 4 days incubation, mean of duplicate experiments
Method: (§1) In vitro evaluation of compounds for anticancer activity in a panel of 12 human tumour cell lines in a monolayer proliferation assay were carried out at the Oncotest Testing Facility, Institute for Experimental Oncology, Oncotest GmbH, Freiburg.
(§2) The Oncotest cell lines were established from human tumor xenografts as described by Roth et al. 1999. The origin of the donor xenografts was described by Fiebig et al. 1992. Other cell lines were either obtained from the NCI (H460, SF-268, OVCAR-3, DU145, MDA-MB-231, MDA-MB-468) or purchased from DSMZ, Braunschweig, Germany (LNCAP).
(§3) All cell lines, unless otherwise specified, are grown at 37° C. in a humidified atmosphere (95% air, 5% CO2) in a ‘ready-mix’ medium containing RPMI 1640 medium, 10% fetal calf serum, and 0.1 mg/mL gentamicin (PAA, Cölbe, Germany).
(§4) A modified propidium iodide assay was used to assess the effects of the test compound(s) on the growth of twelve human tumor cell lines (Dengler et al., 1995).
(§5) Briefly, cells were harvested from exponential phase cultures by trypsinization, counted and plated in 96 well flat-bottomed microtitre plates at a cell density dependent on the cell line (5-10.000 viable cells/well). After 24 h recovery to allow the cells to resume exponential growth, 0.01 mL of culture medium (6 control wells per plate) or culture medium containing 39-desmethoxyrapamycin were added to the wells. Each concentration was plated in triplicate. 39-Desmethoxyrapamycin was applied in two concentrations (0.001 mM and 0.01 mM). Following 4 days of continuous incubation, cell culture medium with or without 39-desmethoxyrapamycin was replaced by 0.2 mL of an aqueous propidium iodide (PI) solution (7 mg/L). To measure the proportion of living cells, cells were permeabilized by freezing the plates. After thawing the plates, fluorescence was measured using the Cytofluor 4000 microplate reader (excitation 530 nm, emission 620 nm), giving a direct relationship to the total number of viable cells.
(§6) Growth inhibition was expressed as treated/control×100 (% T/C) and are provided for a selection of cell lines. […]

[4] = system: MCF7 (MCF-7, breast) tumour cell line; assay: Monolayer proliferation assay (modified propidium iodide), MCF7; assay type: cell-based, human; conditions: 4 days incubation, mean of duplicate experiments
Method: as §1, §2, §3, §4, §5, §6

[5] = system: SF268 (SF-268, CNS) tumour cell line; assay: Monolayer proliferation assay (modified propidium iodide), SF268; assay type: cell-based, human; conditions: 4 days incubation, mean of duplicate experiments
Method: as §1, §2, §3, §4, §5, §6

[6] = system: H460 (NCl-H460, lung) tumour cell line; assay: Monolayer proliferation assay (modified propidium iodide), H460; assay type: cell-based, human; conditions: 4 days incubation, mean of duplicate experiments
Method: as §1, §2, §3, §4, §5
Growth inhibition was expressed as treated/control×100 (% T/C) and are provided for a selection of cell lines. For active compounds, the average IC50 & IC70 values across the entire cell line panel examined were estimated by plotting compound concentration versus cell viability and are also provided.
In vitro evaluation of 17-desmethyl-39-desmethoxyrapamycin for anticancer activity in a panel of 12 human tumour cell lines in a monolayer proliferation assay was carried out as described above using a modified propidium iodide assay.

[7] = system: 1138L (UXF 1138L, uterus) tumour cell line; assay: Monolayer proliferation assay (modified propidium iodide), 1138L; assay type: cell-based, human; conditions: 4 days incubation, mean of duplicate experiments
Method: as §1, §2, §3, §4, §5, §6

[8] = system: 251L (GXF 251L, gastric) tumour cell line; assay: Monolayer proliferation assay (modified propidium iodide), 251L; assay type: cell-based, human; conditions: 4 days incubation, mean of duplicate experiments
Method: as §1, §2, §3, §4
as §5, with “39-Desmethoxyrapamycin was applied in two concentrations (0.001 mM and 0.01 mM).” left out
as §6

[9] = system: 394NL (MEXF 394NL, melanoma) tumour cell line; assay: Monolayer proliferation assay (modified propidium iodide), 394NL; assay type: cell-based, human; conditions: 4 days incubation, mean of duplicate experiments
Method: as §1, §2, §3, §4
as §5, with “39-Desmethoxyrapamycin was applied in two concentrations (0.001 mM and 0.01 mM).” left out
as §6

[10] = system: OVCAR3 (OVCAR-3, ovarian) tumour cell line; assay: Monolayer proliferation assay (modified propidium iodide), OVCAR3; assay type: cell-based, human; conditions: 4 days incubation, mean of duplicate experiments
Method: as §1, §2, §3, §4, §5, §6

[11] = system: panel of human tumour cell lines; assay: Monolayer proliferation assay, mean across the cell line panel; assay type: cell-based; conditions: average across the cell lines tested; estimated from concentration versus cell viability
Method: as §1, §2, §3, §4, §5, §6

[12] = system: LNCAP (prostate, PTEN negative) tumour cell line; assay: Monolayer proliferation assay (modified propidium iodide), LNCAP; assay type: cell-based, human; conditions: 4 days incubation, mean of duplicate experiments
Method: as §1, §2, §3, §4
as §5, with “39-Desmethoxyrapamycin was applied in two concentrations (0.001 mM and 0.01 mM).” left out
as §6

[13] = system: fungi; conditions: compared to rapamycin, cited from earlier work; for antifungal activities: Wong et al., 1998
[14] = system: murine splenic T cells; conditions: compared to rapamycin; Box et al., 1995; cited from earlier work
[15] = target: FKBP12 PPlase (Homo sapiens, UniProt P62942); conditions: compared to rapamycin; Box et al., 1995; cited from earlier work
[16] = system: murine splenic B cells; conditions: compared to rapamycin; Box et al., 1995; cited from earlier work

Chain of FKBP12 PPlase (P62942 whole entry): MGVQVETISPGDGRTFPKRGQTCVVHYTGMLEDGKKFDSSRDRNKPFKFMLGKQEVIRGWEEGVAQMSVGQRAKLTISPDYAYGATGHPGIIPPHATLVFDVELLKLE

CO[C@H]1C[C@@H]2CC[C@@H](C)[C@@](O)(O2)C(=O)C(=O)N2CC(O)C[C@H]2C(=O)O[C@H]([C@H](C)C[C@@H]2CC[C@@H](O)[C@H](OC)C2)CC(=O)[C@H](C)/C=C(\C)[C@@H](O)CC(=O)[C@H](C)C[C@H](C)/C=C/C=C/C=C/1C (stereo partly shown) [4-hydroxyprolyl-26-desmethoxy-rapamycin]
inhibitory activity in proliferation assays [1]: significantly less than that of rapamycin

CO[C@H]1C[C@@H]2CC[C@@H](C)[C@](O)(CC(=O)N3CCCC[C@H]3C(=O)O[C@H]([C@H](C)C[C@@H]3CC[C@@H](O)[C@H](OC)C3)CC(=O)[C@H](C)/C=C(\C)[C@@H](O)[C@@H](OC)C(=O)[C@H](C)C[C@H](C)/C=C/C=C/C=C/1C)O2 [9-deoxorapamycin]
mixed lymphocyte reaction (MLR) inhibitory activity [2]: more significant decrease in activity

CO[C@@H]1/C=C/C=C/C=C/[C@@H](C)C[C@@H](C)C(=O)[C@H](OC)[C@H](O)/C(C)=C/[C@@H](C)C(=O)C[C@@H]([C@H](C)C[C@H]2CC[C@H](O)CC2)OC(=O)[C@@H]2CCCCN2C(=O)C(=O)[C@]2(O)O[C@@H](CC[C@H]2C)C1 [17-desmethyl-39-desmethoxyrapamycin]
Test/Control (%) at drug concentration ([3]; 1 μM): 69%
Test/Control (%) at drug concentration ([3]; 10 μM): 66%
Test/Control (%) at drug concentration ([3]; 100 μM): 5%
Test/Control (%) at drug concentration ([4]; 1 μM): 59%
Test/Control (%) at drug concentration ([4]; 10 μM): 52%
Test/Control (%) at drug concentration ([4]; 100 μM): 8%
Test/Control (%) at drug concentration ([5]; 1 μM): 57%
Test/Control (%) at drug concentration ([5]; 10 μM): 37%
Test/Control (%) at drug concentration ([5]; 100 μM): 4%
Test/Control (%) at drug concentration ([6]; 1 μM): 82%
Test/Control (%) at drug concentration ([6]; 10 μM): 76%
Test/Control (%) at drug concentration ([6]; 100 μM): 3%
Test/Control (%) at drug concentration ([7]; 1 μM): 59%
Test/Control (%) at drug concentration ([7]; 10 μM): 46%
Test/Control (%) at drug concentration ([7]; 100 μM): 5%
Test/Control (%) at drug concentration ([8]; 1 μM): 85%
Test/Control (%) at drug concentration ([8]; 10 μM): 89%
Test/Control (%) at drug concentration ([8]; 100 μM): 16%
Test/Control (%) at drug concentration ([9]; 1 μM): 66%
Test/Control (%) at drug concentration ([9]; 10 μM): 61%
Test/Control (%) at drug concentration ([9]; 100 μM): 4%
Test/Control (%) at drug concentration ([10]; 1 μM): 84%
Test/Control (%) at drug concentration ([10]; 10 μM): 61%
Test/Control (%) at drug concentration ([10]; 100 μM): 8%
IC50 [11]: 13.3 µM
Mean IC70 [11]: 38.2 µM
Test/Control (%) at drug concentration ([12]; 1 μM): 59%
Test/Control (%) at drug concentration ([12]; 10 μM): 43%
Test/Control (%) at drug concentration ([12]; 100 μM): 15%

CO[C@H]1C[C@@H]2CC[C@@H](C)[C@@](O)(O2)C(=O)C(=O)N2CCCC[C@H]2C(=O)O[C@H]([C@H](C)C[C@@H]2CC[C@@H](O)[C@H](OC)C2)CC(=O)[C@H](C)/C=C(\C)[C@@H](O)[C@@H](O)C(=O)[C@H](C)C[C@H](C)/C=C/C=C/C=C/1C [27-O-desmethylrapamycin]
antifungal activity ([13]; Box et al., 1995): lower than that of rapamycin
antifungal activities [13]: lower than that of rapamycin
inhibition of ConA-stimulated proliferation of murine splenic T cells [14]: decreased when compared to rapamycin
inhibition of FKBP12 PPlase activity [15]: seemed to be increased
inhibition of LPS-stimulated proliferation of murine splenic B cells [16]: decreased when compared to rapamycin

CO[C@H]1C[C@@H]2CC[C@@H](C)[C@@](O)(O2)C(=O)C(=O)N2CCCC[C@H]2C(=O)O[C@H]([C@H](C)C[C@@H]2CC[C@@H](O)[C@H](OC)C2)CC(=O)[C@H](C)/C=C(\C)[C@@H](O)CC(=O)[C@H](C)C[C@H](C)/C=C/C=C/C=C/1C [27-desmethoxyrapamycin]
antifungal activities [13]: lower than that of rapamycin

CO[C@H]1C[C@@H]2CC[C@@H](C)[C@@](O)(O2)C(=O)C(=O)N2CCCC[C@H]2C(=O)O[C@H]([C@H](C)C[C@@H]2CC[C@@H](O)[C@H](OC)C2)CC(=O)[C@H](C)/C=C(\C)[C@@H](O)[C@@H](OC)C(=O)[C@H](C)C[C@H](C)/C=C/C=C/C=C/1C [Rapamycin, reference compound]
Test/Control (%) at drug concentration ([6]; 10 μM): 66%
Mean IC70 [11]: 9.1 µM

COC1CC2CCC(C)C(O)(O2)C(=O)C(=O)N2CCCC2C(=O)OC(C(C)CC2CCC(O)C(OC)C2)CC(=O)C(C)/C=C(\C)C(O)C(OC)C(=O)C(C)CC(C)/C=C/C=C/C=C/1C (stereo not shown) [prolylrapamycin]
antifungal activities [13]: lower than that of rapamycin
